Data from patent publication US4176009A, “Method of measuring collagenase activity” (Ajinomoto Co., Inc., priority 1976, dated 1979).
Non-standard residues stand in square brackets, D forms with d. Residues, ends and D or L forms follow the SMILES beside them. *: point of attachment. Dnp = O=[N+]([O-])c1ccc(*)c([N+](=O)[O-])c1

How the values were obtained:
purified collagenase [1] = experiment: Time course of hydrolysis of substrate solutions by purified collagenase (Example 12); assay type: biochemical, tadpole; conditions: for 00365 (absorbance of the organic layer at 365 nm): pH 7.5
Method: (§1) Purified collagenase used in Examples was prepared from cultured media of tadpole skin explants as described in Biochem. Biophs. Acta, 263 564(1972), and non-specific peptidases were prepared by subjecting 5 ml of fresh adult human serum to chromatography on a calibrated Sephadex G-200 superfine gel column equilibrated with 0.05 M Tris-HCl buffer, pH 7.5, containing 0.15 M NaCl and 5 mM CaCl2, and gathering the effluent fractions corresponding to molecular weights of 100,000-180,000.
DNP-Pro-Gln-Gly-Ile-Ala-Gly-Gln-D-Arg-OH.CH3 COOH.H2 O (4.96 mg) was neutralized with 0.1N sodium hydroxide, and dissolved in 0.05M tris-HCl buffer, pH 7.5, containing 0.15 M NaCl and 5 m MCaCl2 to make 10 ml of the substrate solution (a) having a concentration of 5×10^-4 M. The substrate solution (b) was also prepared similarly by using DNP-Gln-Gly-Ile-Ala-Gly-Gln-D-Arg-OH.CH3 COOH.H2 O (4.48 mg).
(§2) 0.9 ml Each of the substrate solutions was diluted with 0.88 ml of 0.05M tris-HCl buffer, pH 7.5, containing 0.15 M NaCl, and 5 m MCaCl2. The resulting solution was mixed with 0.02 ml of purified collagenase, and incubated. 0.2 ml Aliquots of the reaction mixture were taken out at 0, 10, 20, 40, 60 and 120 minutes, and mixed with 0.5 ml of 1M hydrochloric acid for stopping the enzyme reaction.
(§3) The DNP-peptide fragments released were extracted by vigorous shaking with 1 ml of ethyl acetate-n-butanol (1:0.15, V/V) followed by centrifugation at 3,000-5,000 rpm and room temperature for 10 minutes to separate two layers completely. The degree of hydrolysis was determined by measuring the absorbance of the organic layer at 365 nm.

[2] = test system: collagenase in synovial fluids; experiment: Hydrolysis of substrate solutions by synovial fluids from patients; collagenase activity (Example 14); assay type: biochemical, human; conditions: for OD365/0.1 ml ohr: 0 hr; for OD365/0.1 ml 2hr: 2 hr at 37° C.; for OD365/0.1 ml increment: 2 hr minus 0 hr
Method: as §3
0.2 ml Each of the substrate (solutions(a) and (b) prepared in Example 12 was mixed with 0.1 ml of synovial fluids from patients with osteoarthritis and rheumatoid arthritis, and incubated for 2 hours at 37° C. After stopping the enzyme reaction by adding 0.5 ml of 1 M hydrochloric acid, the DNP-peptide fragments released were extracted by vigorous shaking with 2 ml of ethyl acetate-n-butanol (1:0.15, V/V), and worked up as in Example 12 to obtain the collagenase activities.

non-specific peptidases [3] = experiment: Time course of hydrolysis of substrate solution(a) by non-specific peptidase (Example 13); assay type: biochemical, human
Method: as §1, §2, §3
1 ml of the substrate solution(a) prepared in Example 12 was mixed with 1.0 ml of non-specific peptidase, and the resulting solution was worked up as in Example 12.

purified collagenase [4] = experiment: Rate of hydrolysis of DNP-peptide derivatives by purified collagenase (Example 15); assay type: biochemical, tadpole; conditions: 5×10^-4 M peptide, purified collagenase 6.2 U/ml, 37° C., pH 7.5; average of three experiments; extraction with ethyl acetate (* compounds: ethyl acetate-n-butanol 1:0.15)
Method: as §1
(§4) Various DNP-peptide derivatives were dissolved in 0.05 M Tris-HCl buffer, pH 7.5, containing 0.15 M NaCl, 5 mM CaCl2 and 0.02% bovine serum albumin to make a concentration of 5×10^-4 M. 0.1 ml Each of the peptide derivative solutions was mixed with an equal volume of purified collagenase (6.2 U/ml) or non-specific peptidases and incubated for various periods at 37° C. After stopping the enzyme reaction by adding 0.5 ml of 1 M HCl, the DNP-peptide fragments released were extracted by vigorous shaking with 1 ml of ethylacetate or ethyl acetate-n-butanol (1:0.15, V/V), and worked up as in Example 12.

non-specific peptidases [5] = experiment: Rate of hydrolysis of DNP-peptide derivatives by non-specific peptidases (Example 15); assay type: biochemical, human; conditions: 5×10^-4 M peptide, 37° C., pH 7.5; average of three experiments; extraction with ethyl acetate (* compounds: ethyl acetate-n-butanol 1:0.15)
Method: as §1, §4

[6] = synovial fluid of case five, RA
[7] = synovial fluid of case four, OA
[8] = synovial fluid of case three, RA

CC[C@H](C)[C@H](NC(=O)CNC(=O)[C@H](CCC(N)=O)NC(=O)[C@@H]1CCCN1c1ccc([N+](=O)[O-])cc1[N+](=O)[O-])C(=O)N[C@@H](C)C(=O)NCC(=O)N[C@@H](CCC(N)=O)C(=O)N[C@H](CCCNC(=N)N)C(=O)O [Example 1, DNP-Pro-Gln-Gly-Ile-Ala-Gly-Gln-D-Arg-OH] (Dnp-PQGIAGQ[dR]-OH)
00365 (absorbance of the organic layer at 365 nm) (purified collagenase [1]; incubation time 0 min): 0.033
increment of 00365 (purified collagenase [1]; incubation time 10 min): 0.018
00365 (absorbance of the organic layer at 365 nm) (purified collagenase [1]; incubation time 10 min): 0.051
increment of 00365 (purified collagenase [1]; incubation time 20 min): 0.018
00365 (absorbance of the organic layer at 365 nm) (purified collagenase [1]; incubation time 20 min): 0.071
increment of 00365 (purified collagenase [1]; incubation time 40 min): 0.079
00365 (absorbance of the organic layer at 365 nm) (purified collagenase [1]; incubation time 40 min): 0.112
increment of 00365 (purified collagenase [1]; incubation time 60 min): 0.107
00365 (absorbance of the organic layer at 365 nm) (purified collagenase [1]; incubation time 60 min): 0.140
increment of 00365 (purified collagenase [1]; incubation time 120 min): 0.184
00365 (absorbance of the organic layer at 365 nm) (purified collagenase [1]; incubation time 120 min): 0.217
OD365/0.1 ml ohr [2, 6]: 0.045 OD365/0.1 ml
OD365/0.1 ml 2hr [2, 6]: 0.591 OD365/0.1 ml
OD365/0.1 ml increment [2, 6]: 0.546 OD365/0.1 ml
OD365/0.1 ml ohr [2, 7]: 0.042 OD365/0.1 ml
OD365/0.1 ml 2hr [2, 7]: 0.045 OD365/0.1 ml
OD365/0.1 ml increment [2, 7]: 0.003 OD365/0.1 ml
OD365/0.1 ml ohr ([2]; synovial fluid of case one, RA): 0.041 OD365/0.1 ml
OD365/0.1 ml 2hr ([2]; synovial fluid of case one, RA): 0.058 OD365/0.1 ml
OD365/0.1 ml increment ([2]; synovial fluid of case one, RA): 0.017 OD365/0.1 ml
OD365/0.1 ml ohr ([2]; synovial fluid of case six, OA): 0.045 OD365/0.1 ml
OD365/0.1 ml 2hr ([2]; synovial fluid of case six, OA): 0.041 OD365/0.1 ml
OD365/0.1 ml increment ([2]; synovial fluid of case six, OA): 0 OD365/0.1 ml
OD365/0.1 ml ohr [2, 8]: 0.049 OD365/0.1 ml
OD365/0.1 ml 2hr [2, 8]: 0.695 OD365/0.1 ml
OD365/0.1 ml increment [2, 8]: 0.646 OD365/0.1 ml
OD365/0.1 ml ohr ([2]; synovial fluid of case two, OA): 0.045 OD365/0.1 ml
OD365/0.1 ml 2hr ([2]; synovial fluid of case two, OA): 0.043 OD365/0.1 ml
00365 (absorbance of the organic layer at 365 nm) (non-specific peptidases [3]; incubation time 0 min): 0.053
00365 (absorbance of the organic layer at 365 nm) (non-specific peptidases [3]; incubation time 10 min): 0.054
increment of 00365 (non-specific peptidases [3]; incubation time 10 min): 0.001
00365 (absorbance of the organic layer at 365 nm) (non-specific peptidases [3]; incubation time 20 min): 0.056
increment of 00365 (non-specific peptidases [3]; incubation time 20 min): 0.002
00365 (absorbance of the organic layer at 365 nm) (non-specific peptidases [3]; incubation time 40 min): 0.058
increment of 00365 (non-specific peptidases [3]; incubation time 40 min): 0.004
00365 (absorbance of the organic layer at 365 nm) (non-specific peptidases [3]; incubation time 60 min): 0.060
increment of 00365 (non-specific peptidases [3]; incubation time 60 min): 0.007
00365 (absorbance of the organic layer at 365 nm) (non-specific peptidases [3]; incubation time 120 min): 0.063
increment of 00365 (non-specific peptidases [3]; incubation time 120 min): 0.010
Rate of hydrolysis by Collagenase (purified collagenase [4]): 0.093 OD365/hr
Rate of hydrolysis by non-specific peptidases (non-specific peptidases [5]): 0 OD365/hr

CC(C)C[C@H](NC(=O)CNC(=O)[C@H](CCC(N)=O)NC(=O)[C@@H]1CCCN1c1ccc([N+](=O)[O-])cc1[N+](=O)[O-])C(=O)N[C@@H](C)C(=O)NCC(=O)N[C@@H](CCC(N)=O)C(=O)N[C@H](CCCNC(=N)N)C(=O)O [Example 4, DNP-Pro-Gln-Gly-Leu-Ala-Gly-Gln-D-Arg-OH] (Dnp-PQGLAGQ[dR]-OH)
Rate of hydrolysis by Collagenase (purified collagenase [4]): 0.243 OD365/hr
Rate of hydrolysis by non-specific peptidases (non-specific peptidases [5]): 0.031 OD365/hr

CC[C@H](C)[C@H](NC(=O)CNC(=O)[C@H](C)NC(=O)[C@@H]1CCCN1c1ccc([N+](=O)[O-])cc1[N+](=O)[O-])C(=O)N[C@@H](C)C(=O)NCC(=O)N[C@@H](CCC(N)=O)C(=O)N[C@H](CCCNC(=N)N)C(=O)O [Example 5, DNP-Pro-Ala-Gly-Ile-Ala-Gly-Gln-D-Arg-OH] (Dnp-PAGIAGQ[dR]-OH)
Rate of hydrolysis by Collagenase (purified collagenase [4]): 0.070 OD365/hr
Rate of hydrolysis by non-specific peptidases (non-specific peptidases [5]): 0.010 OD365/hr

CC(C)C[C@H](NC(=O)CNC(=O)[C@H](C)NC(=O)[C@@H]1CCCN1c1ccc([N+](=O)[O-])cc1[N+](=O)[O-])C(=O)N[C@@H](C)C(=O)NCC(=O)N[C@@H](CCC(N)=O)C(=O)N[C@H](CCCNC(=N)N)C(=O)O [Example 6, DNP-Pro-Ala-Gly-Leu-Ala-Gly-Gln-D-Arg-OH] (Dnp-PAGLAGQ[dR]-OH)
Rate of hydrolysis by Collagenase (purified collagenase [4]): 0.120 OD365/hr
Rate of hydrolysis by non-specific peptidases (non-specific peptidases [5]): 0.051 OD365/hr
